We go through 10 compounds from patent US20250215029A1 (Recludix Pharma, Inc., priority 2022, published 2025).

The target of one assay is T1, pY705-STAT3 in PBMC (Homo sapiens, UniProt P40763).
T1 construct: Cryopreserved Peripheral Blood Mononuclear Cells (PBMC) are from AllCells; host or cells: cryopreserved PBMC
Put plainly: MSD-pSTAT-PBMC Assay (pSTAT3, IL-6 stimulated). The assay is classed as cell-based. The following applies: PBMC, compound 3 hrs, then 10 ng/mL IL-6 for 10 min; Table 1114; read-out: pSTAT3. Put shortly: (§1)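 Thawed human PBMC rested overnight in IMDM/10% FBS, then got compound for 3 hrs before a 10 min cytokine pulse: 1 ng/mL IL-4 for pSTAT6, 10 ng/mL IL-6 for pSTAT3. Lysates went to MSD sandwich capture on total STAT6 or STAT3 with phospho-specific detection. IC50 came from background-subtracted, DMSO-normalized signal.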

A further assay deals with T2, pY641-STAT6 in PBMC (Homo sapiens, UniProt P42226).
T2 construct: Cryopreserved Peripheral Blood Mononuclear Cells (PBMC) are from AllCells; host or cells: cryopreserved PBMC
T2 sequence (P42226 1-847): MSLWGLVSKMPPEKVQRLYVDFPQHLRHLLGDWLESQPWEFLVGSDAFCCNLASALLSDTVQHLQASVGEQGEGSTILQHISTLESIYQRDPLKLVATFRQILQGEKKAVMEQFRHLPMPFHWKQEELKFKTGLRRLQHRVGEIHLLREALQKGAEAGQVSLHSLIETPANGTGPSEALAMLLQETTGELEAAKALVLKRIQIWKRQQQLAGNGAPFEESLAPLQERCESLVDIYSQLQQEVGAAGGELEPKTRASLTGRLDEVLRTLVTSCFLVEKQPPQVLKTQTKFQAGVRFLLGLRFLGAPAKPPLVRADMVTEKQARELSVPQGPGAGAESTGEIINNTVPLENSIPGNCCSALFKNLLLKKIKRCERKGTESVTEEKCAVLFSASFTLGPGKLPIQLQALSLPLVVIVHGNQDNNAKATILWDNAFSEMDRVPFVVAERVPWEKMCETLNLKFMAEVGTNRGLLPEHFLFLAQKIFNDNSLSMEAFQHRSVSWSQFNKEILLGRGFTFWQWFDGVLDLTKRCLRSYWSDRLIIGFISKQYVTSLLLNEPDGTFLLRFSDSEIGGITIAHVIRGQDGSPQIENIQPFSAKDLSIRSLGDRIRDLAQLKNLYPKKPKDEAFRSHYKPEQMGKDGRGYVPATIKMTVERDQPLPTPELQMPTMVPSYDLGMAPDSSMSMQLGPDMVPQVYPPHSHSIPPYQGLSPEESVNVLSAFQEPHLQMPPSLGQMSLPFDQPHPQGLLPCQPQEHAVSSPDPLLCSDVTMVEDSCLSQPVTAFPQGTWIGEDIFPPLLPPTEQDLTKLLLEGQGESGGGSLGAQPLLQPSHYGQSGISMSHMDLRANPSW
Put plainly: MSD-pSTAT-PBMC Assay (pSTAT6, IL-4 stimulated). The assay is classed as cell-based. The following applies: PBMC, compound 3 hrs, then 1 ng/mL IL-4 for 10 min; Table 1114; read-out: pSTAT6. Put shortly: as §1

T1 sequence (P40763 whole entry): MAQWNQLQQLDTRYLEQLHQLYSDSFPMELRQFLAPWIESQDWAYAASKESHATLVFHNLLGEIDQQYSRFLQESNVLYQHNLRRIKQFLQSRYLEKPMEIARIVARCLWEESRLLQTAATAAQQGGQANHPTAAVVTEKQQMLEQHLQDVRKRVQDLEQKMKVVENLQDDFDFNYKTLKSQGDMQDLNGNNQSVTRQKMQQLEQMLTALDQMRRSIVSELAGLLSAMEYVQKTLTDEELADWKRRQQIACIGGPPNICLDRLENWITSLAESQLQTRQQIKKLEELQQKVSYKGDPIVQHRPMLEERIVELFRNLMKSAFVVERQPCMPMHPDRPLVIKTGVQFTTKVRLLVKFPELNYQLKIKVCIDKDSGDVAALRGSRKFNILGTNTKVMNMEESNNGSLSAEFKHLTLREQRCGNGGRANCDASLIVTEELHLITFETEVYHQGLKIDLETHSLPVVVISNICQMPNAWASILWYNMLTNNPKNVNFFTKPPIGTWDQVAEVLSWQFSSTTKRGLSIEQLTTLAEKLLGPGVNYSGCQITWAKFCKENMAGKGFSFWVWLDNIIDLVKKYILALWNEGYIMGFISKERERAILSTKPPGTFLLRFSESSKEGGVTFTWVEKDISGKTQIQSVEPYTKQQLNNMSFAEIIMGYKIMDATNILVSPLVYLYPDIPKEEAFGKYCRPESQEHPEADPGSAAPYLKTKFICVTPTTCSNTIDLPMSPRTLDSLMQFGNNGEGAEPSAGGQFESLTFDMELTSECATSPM

Take `CC(C)OC(=O)OCOP(=O)(Cc1ccc2sc(C(=O)N[C@H]3CCCC[C@H]4CC[C@@H](C(=O)N5C[C@@H](C#N)[C@H](c6ccccc6)C5)N4C3=O)cc2c1)OCOC(=O)OC(C)C` (single isomer, unassigned) [Compound 148, ((((2-(((3S,6S,10aS)-3-((3S,4R or 3R,4S)-3-cyano-4-phenylpyrrolidine-1-carbonyl)-5-oxodecahydro-pyrrolo[1,2-a]azocin-6-yl)carbamoyl)benzo[b]thiophen-5-yl)methyl)phosphoryl)bis(oxy))bis(methylene) diisopropyl bis(carbonate)]: the results for the IC50 at pY705-STAT3 in PBMC and on pY641-STAT6 in PBMC were over 3 µM and 0.1 to 1 µM, respectively.
With `CC(C)(C)C(=O)SCCOP(=O)(Cc1ccc2sc(C(=O)N[C@H]3CCCC[C@H]4CC[C@@H](C(=O)N5C[C@@H](C#N)[C@H](c6ccccc6)C5)N4C3=O)cc2c1)OCCSC(=O)C(C)(C)C` (single isomer, unassigned) [Compound 149, S,S′-(((((2-(((3S,6S,10aS)-3-((3S,4R or 3R,4S)-3-cyano-4-phenylpyrrolidine-1-carbonyl)-5-oxodecahydro-pyrrolo[1,2-a]azocin-6-yl)carbamoyl)benzo[b]thiophen-5-yl)methyl)phosphoryl)bis (oxy))bis(ethane-2,1-diyl))bis(2,2-dimethyl-propanethioate)], the IC50 at pY705-STAT3 in PBMC and at pY641-STAT6 in PBMC was over 3 µM in each case.
With `CCCC(=O)SCCOP(=O)(OCCSC(=O)CCC)C(F)(F)c1ccc2sc(C(=O)N[C@H]3CCCC[C@H]4CC[C@@H](C(=O)N5C[C@@H](C#N)[C@H](c6ccccc6)C5)N4C3=O)cc2c1` (single isomer, unassigned) [Compound 152, S,S′-(((((2-(((3S,6S,10aS)-3-((3S,4R or 3R,4S)-3-cyano-4-phenylpyrrolidine-1-carbonyl)-5-oxodecahydro-pyrrolo[1,2-a]azocin-6-yl)carbamoyl)benzo[b]thiophen-5-yl)difluoromethyl)phosphoryl)bis(oxy))bis(ethane-2,1-diyl)) dibutanethioate], the IC50 at pY705-STAT3 in PBMC fell in the range of 1 to 3 µM; on pY641-STAT6 in PBMC, 0.1 to 1 µM.
The like results for `CC(C)CC(=O)SCCCCOP(=O)(OCCCCSC(=O)CC(C)C)C(F)(F)c1ccc2sc(C(=O)N[C@H]3CCCC[C@H]4CC[C@@H](C(=O)N5CC(C#N)C(c6ccccc6)C5)N4C3=O)cc2c1` (single isomer, unassigned) [Compound 153, S,S′-(((((2-(((3S,6S,10aS)-3-((3S,4R or 3R,4S)-3-cyano-4-phenylpyrrolidine-1-carbonyl)-5-oxodecahydro-pyrrolo[1,2-a]azocin-6-yl)carbamoyl)benzo[b]thiophen-5-yl)difluoromethyl)phosphoryl)bis (oxy))bis(butane-4,1-diyl)) bis(3-methylbutane thioate)] were, in that order, over 3 µM and over 3 µM.
Consider `CC(C)CC(=O)SCCOP(=O)(OCCSC(=O)CC(C)C)C(F)(F)c1ccc2sc(C(=O)N[C@H]3CCCC[C@H]4CC[C@@H](C(=O)N5C[C@@H](C#N)[C@H](c6cc[nH]c(=O)c6)C5)N4C3=O)cc2c1` (single isomer, unassigned) [Compound 154, S,S′-(((((2-(((3S,6S,10aS)-3-((3S,4R or 3R,4S)-3-cyano-4-(2-oxo-1,2-dihydropyridin-4-yl)pyrrolidine-1-carbonyl)-5-oxodecahydro-pyrrolo[1,2-a]azocin-6-yl)carbamoyl)benzo [b]thiophen-5-yl)difluoromethyl)phosphoryl)bis (oxy))bis(ethane-2,1-diyl)) bis(3-methylbutane thioate)], for which the IC50 at pY705-STAT3 in PBMC and on pY641-STAT6 in PBMC was 0.1 to 1 µM throughout.
On to `CC(C)CC(=O)SCCOP(=O)(OCCSC(=O)CC(C)C)C(F)(F)c1ccc2ccc(C(=O)N[C@H]3CCCC[C@H]4CC[C@@H](C(=O)N5C[C@H](c6cc[nH]c(=O)c6)[C@@H](C#N)C5)N4C3=O)cc2c1` (single isomer, unassigned) [Compound 155, S,S′-(((((7-(((3S,6S,10aS)-3-((3R,4S or 3S,4R)-3-cyano-4-(2-oxo-1,2-dihydropyridin-4-yl)pyrrolidine-1-carbonyl)-5-oxodecahydro-pyrrolo[1,2-a]azocin-6-yl)carbamoyl)naphthalen-2-yl)difluoromethyl)phosphoryl)bis(oxy))bis(ethane-2,1-diyl)) bis(3-methylbutane thioate)], for which the IC50 on pY705-STAT3 in PBMC is 0.1 to 1 µM; at pY641-STAT6 in PBMC, under 0.1 µM.
With `CC(C)C(=O)SCCOP(=O)(OCCSC(=O)C(C)C)C(F)(F)c1ccc2sc(C(=O)N[C@H]3CCCCC4CC[C@@H](C(=O)N5C[C@H](c6ccccc6)[C@@H](C#N)C5)N4C3=O)cc2c1` (single isomer, unassigned) [Compound 156, S,S′-(((((2-(((3S,6S,10aS)-3-((3S,4R or 3R,4S)-3-cyano-4-phenylpyrrolidine-1-carbonyl)-5-oxodecahydro-pyrrolo[1,2-a]azocin-6-yl)carbamoyl)benzo[b]thiophen-5-yl)difluoromethyl)phosphoryl)bis(oxy))bis(ethane-2,1-diyl)) bis(2-methylpropane-thioate)], the results for the IC50 on pY705-STAT3 in PBMC and at pY641-STAT6 in PBMC were 0.1 to 1 µM and under 0.1 µM, respectively.
As to `CC(C)(C(=O)SCCOP(=O)(OCCSC(=O)C(C)(C)C(F)(F)F)C(F)(F)c1ccc2sc(C(=O)N[C@H]3CCCC[C@H]4CC[C@@H](C(=O)N5C[C@@H](C#N)[C@H](c6ccccc6)C5)N4C3=O)cc2c1)C(F)(F)F` (single isomer, unassigned) [Compound 159, S,S′-(((((2-(((3S,6S,10aS)-3-((3S,4R or 3R,4S)-3-cyano-4-phenylpyrrolidine-1-carbonyl)-5-oxodecahydro-pyrrolo[1,2-a]azocin-6-yl)carbamoyl)benzo[b]thiophen-5-yl)difluoromethyl)phosphoryl)bis(oxy))bis(ethane-2,1-diyl)) bis(3,3,3-trifluoro-2,2-dimethylpropane-thioate)], the IC50 on pY705-STAT3 in PBMC and on pY641-STAT6 in PBMC was over 3 µM each time.
As for `CC(C)CC(=O)SCCOP(=O)(OCCSC(=O)CC(C)C)C(F)(F)c1ccc2sc(C(=O)N[C@H]3CCCC(C)[C@H]4CC[C@@H](C(=O)N5C[C@H](c6cc[nH]c(=O)c6)[C@@H](C#N)C5)N4C3=O)cc2c1` (single isomer, unassigned) [Compound 162, S,S′-(((((2-(((3S,6S,10aR)-3-((3R,4S or 3S,4R)-3-cyano-4-(2-oxo-1,2-dihydropyridin-4-yl)pyrrolidine-1-carbonyl)-10-methyl-5-oxodeca-hydropyrrolo[1,2-a]azocin-6-yl)carbamoyl)benzo [b]thiophen-5-yl)difluoromethyl)phosphoryl)bis(oxy))bis(ethane-2,1-diyl)) bis(3-methylbutane thioate)], the IC50 at pY705-STAT3 in PBMC and on pY641-STAT6 in PBMC was 0.1 to 1 µM in each case.
For `CC(C)CC(=O)SCCOP(=O)(OCCSC(=O)CC(C)C)C(F)(F)c1ccc2sc(C(=O)N[C@H]3CCCCC4CC[C@@H](C(=O)N5C[C@H](c6ccccc6)[C@@H](C#N)C5)N4C3=O)cc2c1` (single isomer, unassigned) [Compound 163, S,S′-(((((2-(((3S,6S,10aS)-3-((3R,4S or 3S,4R)-3-cyano-4-phenylpyrrolidine-1-carbonyl)-5-oxodecahydro-pyrrolo[1,2-a]azocin-6-yl)carbamoyl)benzo[b]thiophen-5-yl)difluoromethyl)phosphoryl)bis(oxy))bis(ethane-2,1-diyl)) bis(3-methylbutane thioate)], the results for the IC50 at pY705-STAT3 in PBMC and on pY641-STAT6 in PBMC were over 3 µM and under 0.1 µM, respectively.
